# From US9296746B2, “Heterocyclic compound” (TAKEDA PHARMACEUTICAL COMPANY LIMITED, priority 2012, dated 2016)
# Target: T1, human CH24H (Homo sapiens, UniProt Q9Y6A2)
# T1 construct: Using Full-Length Mammalian Gene Collection No. 4819975 (Invitrogen) as a template; made in house; host or cells: FreeStyle 293-F cells (transient transfection); cell lysate supernatant, not purified
# Experiment: Measurement of CH24H inhibitory activity (24-HC produced from [14C] cholesterol by human CH24H lysate)
# Assay type: biochemical
# Settings: test compound 1 μM, [14C] cholesterol 15 μM, 37° C., 5 hr, read-out: Inhibitory Rate (%) in 1 μM
# Procedure: The expression of human CH24H was performed using FreeStyle 293 Expression System (Invitrogen). According to the manual attached to FreeStyle 293 Expression System and using the plasmid DNA for human CH24H expression (pcDNA3.1(+)/hCH24H) constructed in Experimental Example 1, a transient expression using FreeStyle 293-F cell was performed. After transfection, the cells were cultured at 37° C., 8% CO2 with shaking at 125 rpm for 2 days. The cells were collected by centrifugation, and suspended in a suspension buffer (100 mM potassium phosphate (pH 7.4), 0.1 mM EDTA, 1 mM DTT, 20% Glycerol). The suspended product was disrupted by a polytron homogenizer (manufactured by Kinematica), and centrifuged at 9000×g for 10 min, and the supernatant was collected. The collected supernatant was cryopreserved (−80° C.) as a human CH24H lysate standard product.
# For the measurement of CH24H inhibitory activity, using the human CH24H lysate prepared in Experimental Example 2, the amount of 24-HC produced from cholesterol by catalytic activity of CH24H was measured in the presence of a test compound, and compared with that measured in the absence of the test compound. That is, a test compound solution at various concentrations was mixed with a reaction buffer (50 mM potassium phosphate containing 0.1% BSA and Complete, EDTA-free, pH 7.4) and human CH24H lysate. Then, [^14C] cholesterol (53 mCi/mmol specific activity, 15 μM) was added, and CH24H reaction was performed at 37° C. for 5 hr. After completion of the reaction, a quenching solution consisting of chloroform/methanol/distilled water (2:2:1 v/v) was added, and the resulting 24-HC was extracted by shaking. The extract was applied to silica gel thin layer chromatography (ethyl acetate:toluene=4:6), and the obtained ^14C-24HC fraction was measured with BAS2500 (Fujifilm Corporation).
# The inhibitory rate (%) was calculated from the ratio of radioactivity in the presence of a test compound relative to the radioactivity in the absence of the test compound.
# T1 sequence (Q9Y6A2 whole entry): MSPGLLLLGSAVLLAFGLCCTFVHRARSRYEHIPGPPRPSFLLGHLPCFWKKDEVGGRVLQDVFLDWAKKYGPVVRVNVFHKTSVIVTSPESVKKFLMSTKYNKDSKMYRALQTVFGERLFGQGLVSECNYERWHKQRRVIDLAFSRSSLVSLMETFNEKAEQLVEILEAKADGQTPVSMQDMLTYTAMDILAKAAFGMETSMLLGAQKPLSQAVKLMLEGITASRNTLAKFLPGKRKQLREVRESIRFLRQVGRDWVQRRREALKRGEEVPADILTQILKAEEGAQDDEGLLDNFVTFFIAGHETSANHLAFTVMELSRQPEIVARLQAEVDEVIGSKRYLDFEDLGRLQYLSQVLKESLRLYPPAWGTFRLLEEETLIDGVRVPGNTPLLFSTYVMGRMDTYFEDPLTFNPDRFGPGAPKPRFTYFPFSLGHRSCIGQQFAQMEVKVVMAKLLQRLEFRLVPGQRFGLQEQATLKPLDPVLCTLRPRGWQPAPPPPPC
row,SMILES,inhibition at 1 µM [%]
1,"O=C(C1CC1)n1ccc2c(-c3cnco3)cc(C(F)(F)F)cc21 [Example 4, cyclopropyl(4-(1,3-oxazol-5-yl)-6-(trifluoromethyl)-1H-indol-1-yl)methanone]",88
2,"O=C(c1nnc2c(-c3cnco3)cc(C(F)(F)F)cn12)N1C[C@@H]2C[C@H]1CO2 [Example 58, (1S,4S)-2-oxa-5-azabicyclo[2.2.1]hept-5-yl(8-(1,3-oxazol-5-yl)-6-(trifluoromethyl)[1,2,4]triazolo[4,3-a]pyridin-3-yl)methanone]",80
3,"Cc1cc(-c2cnco2)c2ncc(C(=O)N3C[C@@H]4C[C@H]3CO4)n2c1 [Example 78, (6-methyl-8-(1,3-oxazol-5-yl)imidazo[1,2-a]pyridin-3-yl)((1S,4S)-2-oxa-5-azabicyclo[2.2.1]hept-5-yl)methanone]",94
4,"O=C(c1cnc2c(-c3cnco3)cc(C(F)(F)F)cn12)N1C2COCC1C2 [Example 86, 3-oxa-6-azabicyclo[3.1.1]hept-6-yl(8-(1,3-oxazol-5-yl)-6-(trifluoromethyl)imidazo[1,2-a]pyridin-3-yl)methanone]",95
5,"O=C(c1cnc2c(-c3cnco3)cc(Cl)cn12)N1C[C@@H]2C[C@H]1CO2 [Example 92, (6-chloro-8-(1,3-oxazole-5-yl)imidazo[1,2-a]pyridin-3-yl)((1S,4S)-2-oxa-5-azabicyclo[2.2.1]hept-5-yl)methanone]",86
6,"O=C(c1cnc2c(-c3cnco3)cc(-c3cnco3)cn12)N1C[C@@H]2C[C@H]1CO2 [Example 93, (6,8-di(1,3-oxazol-5-yl)imidazo[1,2-a]pyridin-3-yl)((1S,4S)-2-oxa-5-azabicyclo[2.2.1]hept-5-yl)methanone]",68
7,"CCNC(=O)c1c(C)nc2c(-c3cnco3)cc(C(F)(F)F)cn12 [Example 98, N-ethyl-2-methyl-8-(1,3-oxazol-5-yl)-6-(trifluoromethyl)imidazo[1,2-a]pyridine-3-carboxamide]",69
8,"O=C(NCc1ccccc1)c1nnc2c(-c3cnco3)cc(C(F)(F)F)cn12 [Example 107, N-benzyl-8-(1,3-oxazol-5-yl)-6-(trifluoromethyl)[1,2,4]triazolo[4,3-a]pyridine-3-carboxamide]",89
9,"O=C(c1cnc2c(-c3cnco3)cc(C3CC3)cn12)N1C[C@@H]2C[C@H]1CO2 [Example 116, (6-cyclopropyl-8-(1,3-oxazol-5-yl)imidazo[1,2-a]pyridin-3-yl)((1S,4S)-2-oxa-5-azabicyclo[2.2.1]hept-5-yl)methanone]",90
10,"Cc1cc(-c2cnco2)n2ncc(C(=O)N3C[C@@H]4C[C@H]3CO4)c2c1 [Example 126, (5-methyl-7-(1,3-oxazol-5-yl)pyrazolo[1,5-a]pyridin-3-yl)((1S,4S)-2-oxa-5-azabicyclo[2.2.1]hept-5-yl)methanone]",93
11,"O=C(c1cnc2c(-n3cncn3)cc(C(F)(F)F)cn12)N1C[C@@H]2C[C@H]1CO2 [Example 128, (1S,4S)-2-oxa-5-azabicyclo[2.2.1]hept-5-yl(8-(1H-1,2,4-triazol-1-yl)-6-(trifluoromethyl)imidazo[1,2-a]pyridin-3-yl)methanone]",86
12,"O=C(c1cnc2c(-c3cn[nH]c3)cc(C(F)(F)F)cn12)N1C[C@@H]2C[C@H]1CO2 [Example 134, (1S,4S)-2-oxa-5-azabicyclo[2.2.1]hept-5-yl(8-(1H-pyrazol-4-yl)-6-(trifluoromethyl)imidazo[1,2-a]pyridin-3-yl)methanone]",71
13,"O=C(c1cnc2c(-c3cnco3)cc(F)cn12)N1C2CCC1COC2 [Example 138, (6-fluoro-8-(1,3-oxazol-5-yl)imidazo[1,2-a]pyridin-3-yl)(3-oxa-8-azabicyclo[3.2.1]oct-8-yl)methanone]",82
14,"O=C(c1cnc2c(-n3cncn3)cc(C(F)(F)F)cn12)N1C2CCC1COC2 [Example 142, 3-oxa-8-azabicyclo[3.2.1]oct-8-yl(8-(1H-1,2,4-triazol-1-yl)-6-(trifluoromethyl)imidazo[1,2-a]pyridin-3-yl)methanone]",87
15,"O=C(c1cnc2c(-c3cnco3)cc(C3CC3)cn12)N1C2CCC1COC2 [Example 143, (6-cyclopropyl-8-(1,3-oxazol-5-yl)imidazo[1,2-a]pyridin-3-yl)(3-oxa-8-azabicyclo[3.2.1]oct-8-yl)methanone]",91
16,"CC(=O)c1cc(-c2cnco2)c2ncc(C(=O)N3C[C@@H]4C[C@H]3CO4)n2c1 [Example 155, 1-(3-((1S,4S)-2-oxa-5-azabicyclo[2.2.1]hept-5-ylcarbonyl)-8-(1,3-oxazol-5-yl)imidazo[1,2-a]pyridin-6-yl)ethanone]",84
17,"O=C(c1cnc2c(-n3cncn3)cc(C(F)(F)F)cn12)N1C2COCC1C2 [Example 156, 3-oxa-6-azabicyclo[3.1.1]hept-6-yl(8-(1H-1,2,4-triazol-1-yl)-6-(trifluoromethyl)imidazo[1,2-a]pyridin-3-yl)methanone]",94
18,"O=C(c1cnc2c(-c3cnco3)cc(C(F)F)cn12)N1C[C@@H]2C[C@H]1CO2 [Example 171, (6-(difluoromethyl)-8-(1,3-oxazol-5-yl)imidazo[1,2-a]pyridin-3-yl)((1S,4S)-2-oxa-5-azabicyclo[2.2.1]hept-5-yl)methanone]",91

# Now from value to molecule:
row,inhibition at 1 µM [%],SMILES
1,86,"CCOC(=O)c1cnc2c(-c3cnco3)cc(C(F)(F)F)cn12 [Example 1, ethyl 8-(1,3-oxazol-5-yl)-6-(trifluoromethyl)imidazo[1,2-a]pyridine-3-carboxylate]"
2,89,"O=C(c1cnc2c(-c3cnco3)cc(C(F)(F)F)cn12)N1CCCC1 [Example 2, (8-(1,3-oxazol-5-yl)-6-(trifluoromethyl)imidazo[1,2-a]pyridin-3-yl)(pyrrolidin-1-yl)methanone]"
3,87,"O=C(c1cnc2c(-c3cnco3)cc(C(F)(F)F)cn12)N1CCOCC1 [Example 16, morpholin-4-yl(8-(1,3-oxazol-5-yl)-6-(trifluoromethyl)imidazo[1,2-a]pyridin-3-yl)methanone]"
4,99,"O=C(c1cnc2c(-c3cnco3)cc(C(F)(F)F)cn12)N1CC(F)(F)C1 [Example 21, (3,3-difluoroazetidin-1-yl)(8-(1,3-oxazol-5-yl)-6-(trifluoromethyl)imidazo[1,2-a]pyridin-3-yl)methanone]"
5,93,"O=C(c1cnc2c(-c3cnco3)cc(C(F)(F)F)cn12)N1CC2(COC2)C1 [Example 22, 2-oxa-6-azaspiro[3.3]hept-6-yl(8-(1,3-oxazol-5-yl)-6-(trifluoromethyl)imidazo[1,2-a]pyridin-3-yl)methanone]"
6,93,"O=C(NC1CCOCC1)c1cnc2c(-c3cnco3)cc(C(F)(F)F)cn12 [Example 44, 8-(1,3-oxazol-5-yl)-N-(tetrahydro-2H-pyran-4-yl)-6-(trifluoromethyl)imidazo[1,2-a]pyridine-3-carboxamide]"
7,92,"CN(C(=O)c1cnc2c(-c3cnco3)cc(C(F)(F)F)cn12)C1CCOCC1 [Example 47, N-methyl-8-(1,3-oxazol-5-yl)-N-(tetrahydro-2H-pyran-4-yl)-6-(trifluoromethyl)imidazo[1,2-a]pyridine-3-carboxamide]"
8,88,"O=C(c1cnc2c(-c3cnco3)cc(C(F)(F)F)cn12)N1C[C@@H]2C[C@H]1CO2 [Example 71, (1S,4S)-2-oxa-5-azabicyclo[2.2.1]hept-5-yl(8-(1,3-oxazol-5-yl)-6-(trifluoromethyl)imidazo[1,2-a]pyridin-3-yl)methanone]"
9,96,"O=C(Nc1ccccc1)c1cnc2c(-c3cnco3)cc(C(F)(F)F)cn12 [Example 74, 8-(1,3-oxazol-5-yl)-N-phenyl-6-(trifluoromethyl)imidazo[1,2-a]pyridine-3-carboxamide]"
10,94,"O=C(c1cnc2c(-c3cnco3)cc(C(F)(F)F)cn12)N1CC[C@H](O)C1 [Example 87, ((3S)-3-hydroxypyrrolidin-1-yl)(8-(1,3-oxazol-5-yl)-6-(trifluoromethyl)imidazo[1,2-a]pyridin-3-yl)methanone]"
11,91,"O=C(c1cnc2c(-c3cnco3)cc(C(F)(F)F)cn12)N1CC[C@H](OCC(F)F)C1 [Example 90, ((3S)-3-(2,2-difluoroethoxy)pyrrolidin-1-yl)(8-(1,3-oxazol-5-yl)-6-(trifluoromethyl)imidazo[1,2-a]pyridin-3-yl)methanone]"
12,80,"N#C[C@H]1CCCN1C(=O)c1cnc2c(-c3cnco3)cc(C(F)(F)F)cn12 [Example 175, (2R)-1-((8-(1,3-oxazol-5-yl)-6-(trifluoromethyl)imidazo[1,2-a]pyridin-3-yl)carbonyl)pyrrolidine-2-carbonitrile]"
